Test system: Malassezia pachydermatis (ATCC14522 strain)
Assay: Malassezia otitis externa effect test (dog) (Test Example 3)
Assay type: in vivo, dog (Beagle)
Set-up: Total score (redness, earwax, itching, rash) Immediately before treatment / Total score (redness, earwax, itching, rash) 7 Days after treatment: scale not given here
Conditions: for Microbial count (cfu/ml) 7 Days after treatment: 500 ppm agent solution for 1 minute; for Microbial count (cfu/ml) Immediately before treatment: baseline before 500 ppm agent solution; for Total score (redness, earwax, itching, rash) 7 Days after treatment: 5 mL of 500 ppm agent solution for 1 minute; for Improvement rate (%) of microbial count / Improvement rate (%) of symptom total score: 500 ppm for 1 minute, 7 days after treatment; for Total score (redness, earwax, itching, rash) Immediately before treatment: baseline 7 days after inoculation, before 500 ppm agent solution
Method: Test Example 3: Malassezia Otitis Externa Effect Test (Dog) Test Variety: Beagle (19 to 20-Month-Old)
Test Microbial Strain: Malassezia Pachydermatis (ATCC14522 Strain)
A colony of the Malassezia microbe pre-cultured (7 days, 30° C.) on a Sabouraud agar medium was suspended in sterilized physiological saline (microbial concentration of 1.0 × 10^6 cells/mL), and 0.1 mL of the resulting suspension was inoculated into both ears of the test animal. 7 Days after the inoculation, both ears were filled with 5 mL of an agent solution (sterilized physiological saline solution supplemented with 5% DMSO) prepared to have a concentration of the test compound of 500 ppm, and after 1 minute, thoroughly washed with sterilized physiological saline solution.
At the same time, the number of the Malassezia microbe present inside the ears of the sample was also investigated by the following method.
The surface of the ear canal was scraped three times using a cotton swab to collect the microbe, and the collected microbe was suspended in 1 mL of PBS (containing 8 g of sodium chloride, 2.9 g of disodium hydrogen phosphate, 0.2 g of potassium chloride, and 0.2 g of potassium dihydrogen phosphate in 1000 mL) supplemented with 1% v/v of Tween80 (polyoxyethylene sorbitan monooleate: manufactured by Kanto Chemical Co., Ltd.) together with the cotton swab. The resulting suspension was serially diluted 10-fold with the PBS, and 0.1 mL thereof was applied to a CHROMagar Malassezia/Candida medium (trade name; peptone, special enzyme substrate mixture, chloramphenicol, olive oil, agar) and cultured at 30° C. for 4 days. After that, the colonies having a pink to purple color were counted, the microbial count score was calculated, and the improvement rate was determined.

SMILES: Cc1cc(-c2nc(C#N)[nH]c2Cl)ccc1Cl [Compound No. 7, 5-chloro-4-(4-chloro-3-methylphenyl)-1H-imidazole-2-carbonitrile]
- Microbial count (cfu/ml) 7 Days after treatment (left ear canal swab): 20 cfu/ml
- Microbial count (cfu/ml) Immediately before treatment (left ear canal swab): 480 cfu/ml
- Total score (redness, earwax, itching, rash) 7 Days after treatment (left ear): 0
- Improvement rate (%) of microbial count (left ear): 95.8%
- Improvement rate (%) of symptom total score (left ear): 100%
- Total score (redness, earwax, itching, rash) Immediately before treatment (left ear): 3
- Microbial count (cfu/ml) 7 Days after treatment (right ear canal swab): 30 cfu/ml
- Microbial count (cfu/ml) Immediately before treatment (right ear canal swab): 160 cfu/ml
- Total score (redness, earwax, itching, rash) 7 Days after treatment (right ear): 0
- Improvement rate (%) of microbial count (right ear): 81.3%
- Improvement rate (%) of symptom total score (right ear): 100%
- Total score (redness, earwax, itching, rash) Immediately before treatment (right ear): 3

SMILES: Cc1ccc(-c2nc(C#N)n(O)c2Cl)cc1 [Compound No. 9, 5-chloro-1-hydroxy-4-(4-methylphenyl)-1H-imidazole-2-carbonitrile]
- Microbial count (cfu/ml) 7 Days after treatment (left ear canal swab): 20 cfu/ml
- Microbial count (cfu/ml) Immediately before treatment (left ear canal swab): 1,100 cfu/ml
- Total score (redness, earwax, itching, rash) 7 Days after treatment (left ear): 1
- Improvement rate (%) of microbial count (left ear): 98.2%
- Improvement rate (%) of symptom total score (left ear): 67%
- Total score (redness, earwax, itching, rash) Immediately before treatment (left ear): 3
- Microbial count (cfu/ml) 7 Days after treatment (right ear canal swab): 30 cfu/ml
- Microbial count (cfu/ml) Immediately before treatment (right ear canal swab): 1,600 cfu/ml
- Total score (redness, earwax, itching, rash) 7 Days after treatment (right ear): 1
- Improvement rate (%) of microbial count (right ear): 98.1%
- Improvement rate (%) of symptom total score (right ear): 67%
- Total score (redness, earwax, itching, rash) Immediately before treatment (right ear): 3

Source: patent US20230255939A1, “Antimicrobial Agent for Non-Human Animal” (ISHIHARA SANGYO KAISHA, LTD, priority 2020, published 2023)
